Where two headings read alike, the source gives them in different places.
How the values were obtained:
CYP3A4 [1] = system: CYP3A4
CYP3A4 [2] = assay: clinical; conditions: human, in vivo, po; for AUC(0-inf): AUCinf; for AUC(0-inf) / AUC(0-t) / Cmax: N=12; for AUC(0-t): AUClast
[3] = midazolam with RBN-3143 / without RBN-3143 (300 mg BID for 14 days)
[4] = midazolam with RBN-3143 / without RBN-3143 (300 mg BID for 14 days), listed as midazolam
[5] = 2 mg, GLSM, midazolam 2 mg single oral dose without RBN-3143 (day 1)
[6] = 2 mg, geometric mean (Geo CV%), midazolam 2 mg single oral dose without RBN-3143 (day 1)
[7] = 2 mg, mean (SD), midazolam 2 mg single oral dose without RBN-3143 (day 1)
[8] = GLSM, midazolam 2 mg single oral dose with RBN-3143 300 mg BID at steady state (day 16)
[9] = geometric mean (Geo CV%), midazolam 2 mg single oral dose with RBN-3143 300 mg BID at steady state (day 16)
[10] = mean (SD), midazolam 2 mg single oral dose with RBN-3143 300 mg BID at steady state (day 16)

SMILES: Cc1ncc2n1-c1ccc(Cl)cc1C(c1ccccc1F)=NC2 [Midazolam, midazolam]
- subjects with decreased exposure to oral midazolam (CYP3A4 [1]; after RBN-3143 300 mg BID to steady-state): 9/12
- increase of midazolam Cmax in 1 subject against the trend (CYP3A4 [1]; in the presence of RBN-3143): 3 fold
- subjects showing increased midazolam AUCinf (CYP3A4 [1]; in the presence of RBN-3143): 3 subjects out of 12
- subjects showing increased midazolam Cmax (CYP3A4 [1]; in the presence of RBN-3143): 2 subjects out of 12
- AUCinf GLSM ratio (90% CI) (CYP3A4 [1]; [3]): … … 0.88 (0.76, 1.01)
- AUClast GLSM ratio (90% CI) (CYP3A4 [1]; [3]): … … 0.87 (0.75, 1.01)
- Cmax GLSM ratio (90% CI) (CYP3A4 [1]; [3]): … … 0.92 (0.74, 1.16)
- AUCinf GLSM ratio (90% CI) (CYP3A4 [1]; [4]): 0.88
- Cmax GLSM ratio (90% CI) (CYP3A4 [1]; [4]): 0.92
- AUC(0-inf) (CYP3A4 [2]; [5]): 20.8 ng·h/mL
- AUC(0-inf) (CYP3A4 [2]; [6]): 20.8 ng·h/mL
- AUC(0-inf) (CYP3A4 [2]; [7]): 22.2 ng·h/mL
- AUC(0-t) (CYP3A4 [2]; [5]): 19.8 ng·h/mL
- AUC(0-t) (CYP3A4 [2]; [6]): 19.8 ng·h/mL
- AUC(0-t) (CYP3A4 [2]; [7]): 21.2 ng·h/mL
- Cmax (CYP3A4 [2]; [5]): 9.88 ng/mL
- Cmax (CYP3A4 [2]; [6]): 9.87 ng/mL
- Cmax (CYP3A4 [2]; [7]): 10.3 ng/mL
- half-life (CYP3A4 [2]; 2 mg, t1/2, geometric mean (Geo CV%), midazolam 2 mg single oral dose without RBN-3143 (day 1)): 3.05 h
- half-life (CYP3A4 [2]; 2 mg, t1/2, mean (SD), midazolam 2 mg single oral dose without RBN-3143 (day 1)): 3.29 h
- AUC(0-inf) (CYP3A4 [2]; [8]): 18.3 ng·h/mL
- AUC(0-inf) (CYP3A4 [2]; [9]): 18.3 ng·h/mL
- AUC(0-inf) (CYP3A4 [2]; [10]): 19.9 ng·h/mL
- AUC(0-t) (CYP3A4 [2]; [8]): 17.2 ng·h/mL
- AUC(0-t) (CYP3A4 [2]; [9]): 17.2 ng·h/mL
- AUC(0-t) (CYP3A4 [2]; [10]): 18.6 ng·h/mL
- Cmax (CYP3A4 [2]; [8]): 9.11 ng/mL
- Cmax (CYP3A4 [2]; [9]): 9.11 ng/mL
- Cmax (CYP3A4 [2]; [10]): 9.76 ng/mL
- half-life (CYP3A4 [2]; t1/2, geometric mean (Geo CV%), midazolam 2 mg single oral dose with RBN-3143 300 mg BID at steady state (day 16)): 3.09 h
- half-life (CYP3A4 [2]; t1/2, mean (SD), midazolam 2 mg single oral dose with RBN-3143 300 mg BID at steady state (day 16)): 3.49 h

— article PMC12209991 (Clinical Pharmacology in Drug Development, 2025)
